The target of this test is PCAF719-832 bromodomain (Homo sapiens (Human), UniProt Q92831). The test can be described thus: PCAF AlphaLisa binding assay. Conditions: PCAF bromodomain 225 nM, biotinylated small molecule ligand 6 nM.

Each structure is given as a SMILES string. Counter-ions that a name gives are not always drawn.

PCAF719-832 bromodomain, sequence (Q92831 719-832): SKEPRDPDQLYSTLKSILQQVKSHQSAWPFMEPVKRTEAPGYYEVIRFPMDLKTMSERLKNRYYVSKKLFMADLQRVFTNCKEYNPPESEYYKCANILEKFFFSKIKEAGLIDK
Experimental: PCAF bromodomain binding and inhibition of the compounds disclosed herein was assessed by monitoring the engagement of biotinylated small molecule ligand (known to bind to the PCAF bromodomain) with the target using the AlphaLisa technology (Perkin-Elmer).

Take `COC(=O)c1ccc([C@@H]([C@H](C)Nc2nn(C)c(=O)c3cccnc23)N(C)C)cc1` [Example 68, Methyl 4-((1S,2S)-1-(dimethylamino)-2-((6-methyl-5-oxo-5,6-dihydropyrido[2,3-d]pyridazin-8-yl)amino)propyl)benzoate]: the IC50 (in general, the point on the concentration scale where inhibition reaches its midpoint) came out at 160 nM. Turning to `CN(C)CCNc1nn(C)c(=O)c2ccccc12` [Example 29, 4-((2-(dimethylamino)ethyl)amino)-2-methylphthalazin-1(2H)-one], the IC50 came to 150 nM. Turning to `C[C@H](Nc1nn(C)c(=O)c2cccnc12)[C@H](c1ccc(C(=O)OCc2ccccc2)cc1)N(C)C` [Example 87, benzyl 4-((1S,2S)-1-(dimethylamino)-2-((6-methyl-5-oxo-5,6-dihydropyrido[2,3-d]pyridazin-8-yl)amino)propyl)benzoate hydrochloride], the IC50 was 29 nM. `CN(C)CCNc1nn(C)c(=O)c2cccnc12` [Example 2, 8-((2-(dimethylamino)ethyl)amino)-6-methylpyrido[2,3-d]pyridazin-5(6H)-one] came in with an IC50 of 140 nM.

As for `C[C@@H](CN(C)C)Nc1nn(C)c(=O)c2cccnc12` (single isomer, unassigned) [Example 8A], the IC50 amounted to 42 nM. In the case of `C[C@H](CN(C)C)Nc1nn(C)c(=O)c2cccnc12` (single isomer, unassigned) [Example 8B], the IC50 is greater than 5000 nM.

`CC(C)NCCNc1nn(C)c(=O)c2ccccc12` [Example 40, 4-((2-(isopropylamino)ethyl)amino)-2-methylphthalazin-1(2H)-one]: the IC50 is 9400 nM. On to `CN1CCN(CCNc2nn(C)c(=O)c3ccccc23)CC1` [Example 42, 2-methyl-4-((2-(4-methylpiperazin-1-yl)ethyl)amino)phthalazin-1(2H)-one], for which the IC50 amounted to 9600 nM. The compound `CCC(CNc1nn(C)c(=O)c2ccccc12)N(C)C` (racemic) [Example 39, 4-((2-(dimethylamino)butyl)amino)-2-methylphthalazin-1(2H)-one] had an IC50 of 180 nM. To `CN(C)[C@@H]1c2ccccc2C[C@@H]1Nc1nn(C)c(=O)c2ccccc12` [Example 47A, 4-(((1R,2S)-1-(dimethylamino)-2,3-dihydro-1H-inden-2-yl)amino)-2-methylphthalazin-1(2H)-one] belongs 2700 nM; to `CC(C)OC(=O)c1ccc([C@@H]([C@H](C)Nc2nn(C)c(=O)c3cccnc23)N(C)C)cc1` [Example 86, Isopropyl 4-((1S,2S)-1-(dimethylamino)-2-((6-methyl-5-oxo-5,6-dihydropyrido[2,3-d]pyridazin-8-yl)amino)propyl)benzoate], 30 nM; to `CN(C)C(CNc1nn(C)c(=O)c2c1CCC2)c1ccccc1` (racemic) [Example 37, 4-((2-(dimethylamino)-2-phenylethyl)amino)-2-methyl-2,5,6,7-tetrahydro-1H-cyclopenta[d]pyridazin-1-one], 130 nM. To `CN(C)[C@H]1CCCC[C@@H]1Nc1nn(C)c(=O)c2cccnc12` (single isomer, unassigned) [Example 11B] belongs greater than 5000 nM; to `CN(C)CCOc1nn(C)c(=O)c2ccccc12` [Example 48, 4-(2-(dimethylamino)ethoxy)-2-methylphthalazin-1(2H)-one], 450 nM. `CN(CCNc1nn(C)c(=O)c2ccccc12)C1COC1` [Example 51, 2-methyl-4-((2-(methyl(oxetan-3-yl)amino)ethyl)amino)phthalazin-1(2H)-one] came in with an IC50 of 800 nM.

As to `COCCN(C)CCNc1nn(C)c(=O)c2ccccc12` [Example 49, 4-((2-((2-methoxyethyl)(methyl)amino)ethyl)amino)-2-methylphthalazin-1(2H)-one], the IC50 came to 3500 nM.

`CN(C)[C@H](CNc1nn(C)c(=O)c2ccccc12)c1ccccc1` (single isomer, unassigned) [Example 22A] showed an IC50 of 47 nM.

For the compound `C[C@@H](CNc1nn(C)c(=O)c2cccnc12)N(C)C` (single isomer, unassigned) [Example 7A], the IC50 stood at 860 nM. Compound `COc1ccc(C(CNc2nn(C)c(=O)c3ccccc23)N(C)C)cc1` (racemic) [Example 21, 4-((2-(dimethylamino)-2-(4-methoxyphenyl)ethyl)amino)-2-methylphthalazin-1(2H)-one] showed an IC50 of 64 nM.

As for `CCn1nc(N[C@H](C)CN(C)C)c2ccccc2c1=O` (single isomer, unassigned) [Example 17A], the IC50 was greater than 5000 nM. With `CC(CN(C)C)Nc1nn(C)c(=O)c2ccccc12` (racemic) [Example 28, 4-((1-(dimethylamino)propan-2-yl)amino)-2-methylphthalazin-1(2H)-one] the figure was 66 nM; with `CN1CCCC(Nc2nn(C)c(=O)c3ccccc23)C1` (racemic) [Example 43, 2-methyl-4-((1-methylpiperidin-3-yl)amino)phthalazin-1(2H)-one], 790 nM. Consider `Cn1nc(N[C@@H]2CCCC[C@H]2N)c2ccccc2c1=O` (racemic) [Example 35, 4-(((1R,2R)-2-aminocyclohexyl)amino)-2-methylphthalazin-1(2H)-one], for which the IC50 was 12000 nM. The compound `CN(C)[C@@H](CNc1nn(C)c(=O)c2cccnc12)c1ccccc1` [Example 1B, (R)-8-((2-(dimethylamino)-2-phenylethyl)amino)-6-methylpyrido[2,3-d]pyridazin-5(6H)-one] registered an IC50 of 2200 nM. Take `CN(C)C(CNc1nn(C)c(=O)c2ccccc12)C1CCCCC1` (racemic) [Example 38, 4-((2-cyclohexyl-2-(dimethylamino)ethyl)amino)-2-methylphthalazin-1(2H)-one]: the IC50 was 700 nM. `CC[C@H](CNc1nn(C)c(=O)c2ccccc12)N(C)C` (single isomer, unassigned) [Example 39B]: the IC50 was 89 nM.

`COc1ccc([C@@H]([C@H](C)Nc2nn(C)c(=O)c3ccccc23)N(C)C)cc1` (single isomer, unassigned) [Example 79] gave an IC50 of 73 nM. For the compound `CN(C)[C@H](CNc1nn(C)c(=O)c2cccnc12)c1ccccc1` [Example 1A, (S)-8-((2-(dimethylamino)-2-phenylethyl)amino)-6-methylpyrido[2,3-d]pyridazin-5(6H)-one], the IC50 was found to be 45 nM.

In turn, `CN1CC(Nc2nn(C)c(=O)c3cccnc23)C1` [Example 18, 6-methyl-8-((1-methylazetidin-3-yl)amino)pyridol[2,3-d]pyridazin-5(6H)-one] registered an IC50 of 1500 nM. For the compound `C[C@H](Nc1nn(C)c(=O)c2cccnc12)[C@H](c1ccc(S(=O)(=O)c2ccccc2)cc1)N(C)C` (single isomer, unassigned) [Example 74A], the concentration for half-maximal inhibition (IC50) is 20 nM. In the case of `C[C@H](Nc1nn(C)c(=O)c2cccnc12)[C@H](c1ccc(C(=O)N(C)Cc2ccccc2)cc1)N(C)C` (single isomer, unassigned) [Example 84], the IC50 stood at 56 nM.

Compound `Cn1nc(NCCN2CCCC2)c2ccccc2c1=O` [Example 24, 2-methyl-4-((2-(pyrrolidin-1-yl)ethyl)amino)phthalazin-1(2H)-one] gave an IC50 of 920 nM. For the compound `CN(C)C(CNc1nn(C)c(=O)c2cccnc12)c1ccccc1` (stereo not drawn) [Example 1, 8-((2-(dimethylamino)-2-phenylethyl)amino)-6-methylpyrido[2,3-d]pyridazin-5(6H)-one], the IC50 came to 86 nM. In the case of `C[C@H](Nc1nn(C)c(=O)c2ccccc12)[C@H](c1ccc(OCc2ccccc2)cc1)N(C)C` (stereo in doubt) [Example 77, 4-((1-(4-(benzyloxy)phenyl)-1-(dimethylamino)propan-2-yl)amino)-2-methylphthalazin-1(2H)-one], the IC50 was 36 nM.

As for `CN1CCCC1CNc1nn(C)c(=O)c2ccccc12` (racemic) [Example 30, 2-methyl-4-(((1-methylpyrrolidin-2-yl)methyl)amino)phthalazin-1(2H)-one], the IC50 stood at 1700 nM.

With `C[C@@H](Nc1nn(C)c(=O)c2ccccc12)[C@@H](c1ccccc1)N(C)C` (single isomer, unassigned) [Example 73B], the IC50 turned out to be 680 nM.

In turn, `C[C@H](Nc1nn(C)c(=O)c2ccccc12)[C@H](c1ccc(O)cc1)N(C)C` [Example 76, 4-(((1S,2S)-1-(dimethylamino)-1-(4-hydroxyphenyl)propan-2-yl)amino)-2-methylphthalazin-1(2H)-one] showed an IC50 of 42 nM. Compound `CC[C@H](Nc1nn(C)c(=O)c2cccnc12)[C@H](c1ccccc1)N(C)C` (single isomer, unassigned) [Example 58] returned a half-inhibitory concentration (IC50) of 40 nM. Consider `Cc1cccc2c(N[C@@H](C)[C@H](c3ccccc3)N(C)C)nn(C)c(=O)c12` (single isomer, unassigned) [Example 69A], for which the IC50 is greater than 5000 nM.

For the compound `C[C@H](Nc1nn(C)c(=O)c2cccnc12)[C@H](c1ccc(Oc2ccccc2)cc1)N(C)C` (single isomer, unassigned) [Example 64], the IC50 was 290 nM. `C[C@H](CNc1nn(C)c(=O)c2cccnc12)N(C)C` (single isomer, unassigned) [Example 7B] gave an IC50 of 72 nM. `CN(C)C(CNc1nn(C)c(=O)c2c1CCCC2)c1ccccc1` (racemic) [Example 36, 4-((2-(dimethylamino)-2-phenylethyl)amino)-2-methyl-5,6,7,8-tetrahydrophthalazin-1(2H)-one] had an IC50 of 820 nM.

`CN1CCC(Nc2nn(C)c(=O)c3ccccc23)C1` (racemic) [Example 44, 2-methyl-4-((1-methylpyrrolidin-3-yl)amino)phthalazin-1(2H)-one] displayed an IC50 of 260 nM.

In turn, `COc1ccc2c(NCCN(C)C)nn(C)c(=O)c2c1` [Example 4, 4-((2-(dimethylamino)ethyl)amino)-7-methoxy-2-methylphthalazin-1(2H)-one] yielded a half-maximal inhibitory concentration (IC50) of 470 nM. In the case of `CC(CN(C)C)Nc1nn(C)c(=O)c2c1CN(c1ccc(Cl)cc1)CC2` (racemic) [Example 90, 6-(4-chlorophenyl)-4-((1-(dimethylamino)propan-2-yl)amino)-2-methyl-5,6,7,8-tetrahydropyrido[3,4-d]pyridazin-1(2H)-one], the IC50 came out at 820 nM.

The values above are taken from patent publication US10155764B2, “Therapeutic compounds and uses thereof” (GENENTECH, INC., priority 2014, dated 2018).
